Experimental data from patent US20110071108A1, “Beta-Cyclodextrin Derivatives as Antibacterial Agents” (Pinnacle Pharmaceuticals, Inc., priority 2005, published 2011).

Assays:
Experiment in all cases: Bacterial panel testing, MIC by broth microdilution
Type in all cases: cell-based
Conditions in all cases: 20-24 hours growth
Enterococcus faecium = test system: Enterococcus faecium
Description: (§1) One to three colonies of bacteria were picked from an Mueller-Hinton or Brain Heart infusion agar plate (depending on the bacterial strain) and transferred to 3 ml Mueller-Hinton broth or Brain Heart infusion media (depending on the bacterial strain). Bacteria were allowed to grow for 2-4 hours in an incubator at 37° C. Bacteria-inoculated media were dispersed in 0.9% saline to match McFarland standard density. 100 μl standardized inoculation was added to 20 ml media (dilution 1). 10 μl of the new dilution was added to 990 μl media and mixed (dilution 2). 10 μl of dilution 2 was spread on an agar plate and allowed to grow overnight. Colonies were then […].
(§2) Test compound was diluted to 10 μg/ml in dimethylsulfoxide. Four μl of Rifampicin antibiotic was loaded into row H, column 2.
(§3) All wells were then filled with 100 μl of inoculated media (dilution 1 from Example 1). A further 100 μl of the inoculated media was then added to column 2 and the contents are pipetted to thoroughly mix the contents. A full 100 μl was then transferred from column 2 and mixed into column 3. This process was continued from left to right until columns 2-12 were serially diluted, and the final draw from column 12 was discarded. The plates were covered with 3M sealing tape (plates containing Enterococcus faecium were sealed with Air Pore sealing tape) and allowed to grow for 20-24 hours. Cytotoxic wells (clear wells) are then scored and the potency of the compound was determined.

Eschericia coli = test system: Eschericia coli
Description: as §1, §2, §3

Pseudomonas aeruginosa = test system: Pseudomonas aeruginosa
Description: as §1, §2, §3

Salmonella choleraesuis = test system: Salmonella choleraesuis
Description: as §1, §2, §3

Staphylococcus aureus = test system: Staphylococcus aureus
Description: as §1, §2, §3

SMILES	MIC EF (Enterococcus faecium) [µg/mL]	MIC EC (Eschericia coli) [µg/mL]	MIC PA (Pseudomonas aeruginosa) [µg/mL]	MIC SC (Salmonella choleraesuis) [µg/mL]	MIC SA (Staphylococcus aureus) [µg/mL]
C[C@H](N)C(=O)NC[C@H]1O[C@@H]2O[C@H]3[C@H](O)[C@@H](O)[C@@H](O[C@H]4[C@H](O)[C@@H](O)[C@@H](O[C@H]5[C@H](O)[C@@H](O)[C@@H](O[C@H]6[C@H](O)[C@@H](O)[C@@H](O[C@H]7[C@H](O)[C@@H](O)[C@@H](O[C@H]8[C@H](O)[C@@H](O)[C@@H](O[C@H]1[C@H](O)[C@H]2O)O[C@@H]8CNC(=O)[C@H](C)N)O[C@@H]7CNC(=O)[C@H](C)N)O[C@@H]6CNC(=O)[C@H](C)N)O[C@@H]5CNC(=O)[C@H](C)N)O[C@@H]4CNC(=O)[C@H](C)N)O[C@@H]3CNC(=O)[C@H](C)N.Cl.Cl.Cl.Cl.Cl.Cl.Cl	>200	>200	>200	>200	>200
CC(C)(C)OC(=O)NC(CCCN)C(=O)NCC1OC2OC3C(CNC(=O)C(CCCN)NC(=O)OC(C)(C)C)OC(OC4C(CNC(=O)C(CCCN)NC(=O)OC(C)(C)C)OC(OC5C(CNC(=O)C(CCCN)NC(=O)OC(C)(C)C)OC(OC6C(CNC(=O)C(CCCN)NC(=O)OC(C)(C)C)OC(OC7C(CNC(=O)C(CCCN)NC(=O)OC(C)(C)C)OC(OC8C(CNC(=O)C(CCCN)NC(=O)OC(C)(C)C)OC(OC1C(O)C2O)C(O)C8O)C(O)C7O)C(O)C6O)C(O)C5O)C(O)C4O)C(O)C3O.Cl.Cl.Cl.Cl.Cl.Cl.Cl (stereo not drawn)	>200	–	>200	–	>200
Cl.Cl.Cl.Cl.Cl.Cl.Cl.NC(CO)C(=O)NCC1OC2OC3C(CNC(=O)C(N)CO)OC(OC4C(CNC(=O)C(N)CO)OC(OC5C(CNC(=O)C(N)CO)OC(OC6C(CNC(=O)C(N)CO)OC(OC7C(CNC(=O)C(N)CO)OC(OC8C(CNC(=O)C(N)CO)OC(OC1C(O)C2O)C(O)C8O)C(O)C7O)C(O)C6O)C(O)C5O)C(O)C4O)C(O)C3O (stereo not drawn)	–	>200	>200	>200	>200
CC(O)C(N)C(=O)NCC1OC2OC3C(CNC(=O)C(N)C(C)O)OC(OC4C(CNC(=O)C(N)C(C)O)OC(OC5C(CNC(=O)C(N)C(C)O)OC(OC6C(CNC(=O)C(N)C(C)O)OC(OC7C(CNC(=O)C(N)C(C)O)OC(OC8C(CNC(=O)C(N)C(C)O)OC(OC1C(O)C2O)C(O)C8O)C(O)C7O)C(O)C6O)C(O)C5O)C(O)C4O)C(O)C3O.Cl.Cl.Cl.Cl.Cl.Cl.Cl (stereo not drawn)	–	>200	>200	>200	>200
O=C(C[n+]1ccccc1)NCC1OC2OC3C(CNC(=O)C[n+]4ccccc4)OC(OC4C(CNC(=O)C[n+]5ccccc5)OC(OC5C(CNC(=O)C[n+]6ccccc6)OC(OC6C(CNC(=O)C[n+]7ccccc7)OC(OC7C(CNC(=O)C[n+]8ccccc8)OC(OC8C(CNC(=O)C[n+]9ccccc9)OC(OC1C(O)C2O)C(O)C8O)C(O)C7O)C(O)C6O)C(O)C5O)C(O)C4O)C(O)C3O.[Cl-].[Cl-].[Cl-].[Cl-].[Cl-].[Cl-].[Cl-] (stereo not drawn)	>200	>200	>200	>200	>200
Cl.Cl.Cl.Cl.Cl.Cl.Cl.O=C(CNCc1ccccc1)NCC1OC2OC3C(CNC(=O)CNCc4ccccc4)OC(OC4C(CNC(=O)CNCc5ccccc5)OC(OC5C(CNC(=O)CNCc6ccccc6)OC(OC6C(CNC(=O)CNCc7ccccc7)OC(OC7C(CNC(=O)CNCc8ccccc8)OC(OC8C(CNC(=O)CNCc9ccccc9)OC(OC1C(O)C2O)C(O)C8O)C(O)C7O)C(O)C6O)C(O)C5O)C(O)C4O)C(O)C3O (stereo not drawn)	>200	>200	>200	>200	>200
CC(C)(C)OC(=O)NCCCC[C@H](NC(=O)[C@@H](N)CCCCNC(=O)OC(C)(C)C)C(=O)NCC1OC2OC3C(CNC(=O)[C@H](CCCCNC(=O)OC(C)(C)C)NC(=O)[C@@H](N)CCCCNC(=O)OC(C)(C)C)OC(OC4C(CNC(=O)[C@H](CCCCNC(=O)OC(C)(C)C)NC(=O)[C@@H](N)CCCCNC(=O)OC(C)(C)C)OC(OC5C(CNC(=O)[C@H](CCCCNC(=O)OC(C)(C)C)NC(=O)[C@@H](N)CCCCNC(=O)OC(C)(C)C)OC(OC6C(CNC(=O)[C@H](CCCCNC(=O)OC(C)(C)C)NC(=O)[C@@H](N)CCCCNC(=O)OC(C)(C)C)OC(OC7C(CNC(=O)[C@H](CCCCNC(=O)OC(C)(C)C)NC(=O)[C@@H](N)CCCCNC(=O)OC(C)(C)C)OC(OC8C(CNC(=O)[C@H](CCCCNC(=O)OC(C)(C)C)NC(=O)[C@@H](N)CCCCNC(=O)OC(C)(C)C)OC(OC1C(O)C2O)C(O)C8O)C(O)C7O)C(O)C6O)C(O)C5O)C(O)C4O)C(O)C3O (stereo partly drawn)	>200	>200	>200	>200	>200
OC1C2OC(CNc3nc4ccccc4[nH]3)C(OC3OC(CNc4nc5ccccc5[nH]4)C(OC4OC(CNc5nc6ccccc6[nH]5)C(OC5OC(CNc6nc7ccccc7[nH]6)C(OC6OC(CNc7nc8ccccc8[nH]7)C(OC7OC(CNc8nc9ccccc9[nH]8)C(OC8OC(CNc9nc%10ccccc%10[nH]9)C(O2)C(O)C8O)C(O)C7O)C(O)C6O)C(O)C5O)C(O)C4O)C(O)C3O)C1O (stereo not drawn)	>200	>200	>200	>200	>200
COC(=O)c1cccc(NCC2OC3OC4C(CNc5cccc(C(=O)OC)c5)OC(OC5C(CNc6cccc(C(=O)OC)c6)OC(OC6C(CNc7cccc(C(=O)OC)c7)OC(OC7C(CNc8cccc(C(=O)OC)c8)OC(OC8C(CNc9cccc(C(=O)OC)c9)OC(OC9C(CNc%10cccc(C(=O)OC)c%10)OC(OC2C(O)C3O)C(O)C9O)C(O)C8O)C(O)C7O)C(O)C6O)C(O)C5O)C(O)C4O)c1 (stereo not drawn)	–	>200	>200	>200	>200
C=CCNCC1OC2OC3C(CNCC=C)OC(OC4C(CNCC=C)OC(OC5C(CNCC=C)OC(OC6C(CNCC=C)OC(OC7C(CNCC=C)OC(OC8C(CNCC=C)OC(OC1C(O)C2O)C(O)C8O)C(O)C7O)C(O)C6O)C(O)C5O)C(O)C4O)C(O)C3O (stereo not drawn)	>200	>200	>200	>200	>200
Cl.Cl.Cl.Cl.Cl.Cl.Cl.N=C(N)NCCCCSCC1OC2OC3C(CSCCCCNC(=N)N)OC(OC4C(CSCCCCNC(=N)N)OC(OC5C(CSCCCCNC(=N)N)OC(OC6C(CSCCCCNC(=N)N)OC(OC7C(CSCCCCNC(=N)N)OC(OC8C(CSCCCCNC(=N)N)OC(OC1C(O)C2O)C(O)C8O)C(O)C7O)C(O)C6O)C(O)C5O)C(O)C4O)C(O)C3O (stereo not drawn)	>200	>200	>200	>200	>200
CC(C)NCC1OC2OC3C(CNC(C)C)OC(OC4C(CNC(C)C)OC(OC5C(CNC(C)C)OC(OC6C(CNC(C)C)OC(OC7C(CNC(C)C)OC(OC8C(CNC(C)C)OC(OC1C(O)C2O)C(O)C8O)C(O)C7O)C(O)C6O)C(O)C5O)C(O)C4O)C(O)C3O (stereo not drawn)	>200	>200	>200	>200	>200
Cl.Cl.Cl.Cl.Cl.Cl.NCCCCCCSCC1OC2OC3C(CSCCCCCCN)OC(OC4C(CSCCCCCCN)OC(OC5C(CSCCCCCCN)OC(OC6C(CSCCCCCCN)OC(OC7C(CSCCCCCCN)OC(OC1C(O)C2O)C(O)C7O)C(O)C6O)C(O)C5O)C(O)C4O)C(O)C3O (stereo not drawn)	>200	>200	–	>200	>200
Cl.Cl.Cl.Cl.Cl.Cl.Cl.NCCCCCCCSCC1OC2OC3C(CSCCCCCCCN)OC(OC4C(CSCCCCCCCN)OC(OC5C(CSCCCCCCCN)OC(OC6C(CSCCCCCCCN)OC(OC7C(CSCCCCCCCN)OC(OC8C(CSCCCCCCCN)OC(OC1C(O)C2O)C(O)C8O)C(O)C7O)C(O)C6O)C(O)C5O)C(O)C4O)C(O)C3O (stereo not drawn)	>200	–	>200	>200	>200
CC(CCN)CCSCC1OC2OC3C(CSCCC(C)CCN)OC(OC4C(CSCCC(C)CCN)OC(OC5C(CSCCC(C)CCN)OC(OC6C(CSCCC(C)CCN)OC(OC7C(CSCCC(C)CCN)OC(OC8C(CSCCC(C)CCN)OC(OC1C(O)C2O)C(O)C8O)C(O)C7O)C(O)C6O)C(O)C5O)C(O)C4O)C(O)C3O.Cl.Cl.Cl.Cl.Cl.Cl.Cl (stereo not drawn)	>100	>100	>100	>100	>100
Cl.Cl.Cl.Cl.Cl.Cl.Cl.NCCSCCCSCC1OC2OC3C(CSCCCSCCN)OC(OC4C(CSCCCSCCN)OC(OC5C(CSCCCSCCN)OC(OC6C(CSCCCSCCN)OC(OC7C(CSCCCSCCN)OC(OC8C(CSCCCSCCN)OC(OC1C(O)C2O)C(O)C8O)C(O)C7O)C(O)C6O)C(O)C5O)C(O)C4O)C(O)C3O (stereo not drawn)	>200	–	>200	>200	>200
